# Source: the Kinase Knowledgebase extract (Sharma et al. 2016)
# Biological target: MAPK14 (human) (UniProt Q16539)
# Experiment: Cell-Based Assay
# Conditions: hct-116
# MAPK14 (human), sequence (Q16539 whole entry, looked up): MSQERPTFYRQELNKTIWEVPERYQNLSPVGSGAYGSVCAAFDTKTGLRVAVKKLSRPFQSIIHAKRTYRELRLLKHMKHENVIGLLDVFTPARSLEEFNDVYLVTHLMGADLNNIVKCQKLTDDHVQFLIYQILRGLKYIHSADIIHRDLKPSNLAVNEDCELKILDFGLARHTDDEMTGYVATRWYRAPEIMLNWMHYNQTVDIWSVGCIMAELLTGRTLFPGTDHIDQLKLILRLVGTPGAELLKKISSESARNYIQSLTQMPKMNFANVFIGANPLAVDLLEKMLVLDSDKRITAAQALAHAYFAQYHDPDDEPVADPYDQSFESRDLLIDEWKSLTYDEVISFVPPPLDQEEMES
row,Structure (SMILES),IC50
1,Nc1ncc(-c2cnn([C@H]3CC[C@H](O)CC3)c2)c2cc(-c3cc(F)cc4cnsc34)oc12,100 to 1000 nM
2,CC(=O)N1CC(n2cc(-c3cnc(N)c4oc(-c5csc6cnccc56)cc34)cn2)C1,100 to 1000 nM
3,Nc1ncc(-c2cnn(C3CCN(CCO)CC3)c2)c2cc(-c3cccc4cnccc34)oc12,100 to 1000 nM
4,Nc1ncc(-c2cnn([C@H]3CC[C@H](O)CC3)c2)c2cc(-c3c(F)ccc4cnsc34)oc12,100 to 1000 nM
5,Nc1ncc(-c2cnn(C3CCN(C(=O)C4CC4)CC3)c2)c2cc(-c3cccc4cnccc34)oc12,100 to 1000 nM
6,CC(=O)N1CCC(n2cc(-c3cnc(N)c4oc(-c5csc6cnccc56)cc34)cn2)CC1,100 to 1000 nM
7,Cn1cc(-c2cnc(N)c3oc(-c4c[nH]c5cnccc45)cc23)cn1,100 to 1000 nM
8,Cc1sc2cnccc2c1-c1cc2c(-c3cnn([C@H]4CC[C@H](O)CC4)c3)cnc(N)c2o1,100 to 1000 nM
9,CC(C)n1cc(-c2cnc(N)c3oc(-c4cccc5cnccc45)cc23)cn1,100 to 1000 nM
10,CC(C)(C)OC(=O)N1CCC(n2cc(-c3cnc(N)c4oc(-c5csc6cnccc56)cc34)cn2)CC1,100 to 1000 nM
11,CC(C)n1cc(-c2cnc(N)c3oc(-c4c[nH]c5cnccc45)cc23)cn1,≤ 100 nM
12,Nc1ncc(-c2cnn(C3CCN(CC(F)(F)F)CC3)c2)c2cc(-c3cccc4cnccc34)oc12,100 to 1000 nM
13,C[C@]1(O)CC[C@@H](n2cc(-c3cnc(N)c4oc(-c5cccc6cnccc56)cc34)cn2)CC1,100 to 1000 nM
14,CNc1ncc(-c2cnn(C3CCN(C(C)=O)CC3)c2)c2cc(-c3csc4cnccc34)oc12,≤ 100 nM
15,Nc1ncc(-c2cnn([C@H]3CC[C@H](O)CC3)c2)c2cc(-c3csc4cnccc34)oc12,≤ 100 nM
16,Nc1ncc(-c2cnn(C3CNC3)c2)c2cc(-c3csc4cnccc34)oc12,100 to 1000 nM
17,Nc1ncc(-c2cnn([C@H]3CC[C@H](O)CC3)c2)c2cc(-c3cncc4cnsc34)oc12,100 to 1000 nM
18,CC(C)N1CCC(n2cc(-c3cnc(N)c4oc(-c5cccc6cnccc56)cc34)cn2)CC1,100 to 1000 nM
19,COCC(=O)N1CCC(n2cc(-c3cnc(N)c4oc(-c5cccc6cnccc56)cc34)cn2)CC1,100 to 1000 nM
20,COCCN1CCC(n2cc(-c3cnc(N)c4oc(-c5cccc6cnccc56)cc34)cn2)CC1,100 to 1000 nM
21,Nc1ncc(-c2cnn(C3CC4(C3)OCCO4)c2)c2cc(-c3csc4cnccc34)oc12,100 to 1000 nM
22,CN1CCC(n2cc(-c3cnc(N)c4oc(-c5cccc6cnccc56)cc34)cn2)CC1,100 to 1000 nM
23,Nc1ncc(-c2cnn(C3CCNCC3)c2)c2cc(-c3cccc4cnccc34)oc12,100 to 1000 nM
24,Nc1ncc(-c2cn[nH]c2)c2cc(-c3cccc4cnccc34)oc12,100 to 1000 nM
25,CC(C)C(=O)N1CCC(n2cc(-c3cnc(N)c4oc(-c5cccc6cnccc56)cc34)cn2)CC1,≤ 100 nM

row,Structure (SMILES),IC50
1,CNc1ncc(-c2cnn([C@H]3CC[C@H](O)CC3)c2)c2cc(-c3csc4cnccc34)oc12,≤ 100 nM
2,Nc1ncc(-c2cnn(C3CCNCC3)c2)c2cc(-c3ccc4[nH][nH]c(=O)c4c3)oc12,> 10000 nM
3,Nc1ncc(-c2cnn(C3CCNCC3)c2)c2cc(-c3cccc4cnsc34)oc12,100 to 1000 nM
4,CCN1CCC(n2cc(-c3cnc(N)c4oc(-c5cccc6cnccc56)cc34)cn2)CC1,100 to 1000 nM
5,Nc1ncc(-c2cnn([C@@H]3C[C@@H](O)[C@@H](O)C3)c2)c2cc(-c3csc4cnccc34)oc12,100 to 1000 nM
6,CC(=O)N1CCC(n2cc(-c3cnc(N)c4oc(-c5csc6cncc(F)c56)cc34)cn2)CC1,100 to 1000 nM
7,Nc1ncc(-c2cnn([C@H]3CC[C@H](O)CC3)c2)c2cc(-c3csc4cnc(F)cc34)oc12,≤ 100 nM
8,Nc1ncc(-c2cnn(C3CCNCC3)c2)c2cc(-c3ccc4[nH]ncc4c3)oc12,100 to 1000 nM
9,Nc1ncc(-c2cnn([C@H]3CC[C@H](O)CC3)c2)c2cc(-c3cccc4cnccc34)oc12,100 to 1000 nM
10,Nc1ncc(-c2cnn([C@H]3CC[C@H](O)CC3)c2)c2cc(-c3ccc(F)c4cnsc34)oc12,100 to 1000 nM
11,Nc1ncc(-c2cnn([C@H]3CC[C@H](O)CC3)c2)c2cc(-c3cccc4cnsc34)oc12,100 to 1000 nM
12,CS(=O)(=O)N1CCC(n2cc(-c3cnc(N)c4oc(-c5cccc6cnccc56)cc34)cn2)CC1,100 to 1000 nM
13,CC(=O)N1CCC(n2cc(-c3cnc(N)c4oc(-c5cnn(Cc6cccnc6)c5)cc34)cn2)CC1,> 10000 nM
14,Cn1cc(-c2cnc(N)c3oc(-c4csc5cnccc45)cc23)cn1,100 to 1000 nM
15,Nc1ncc(-c2cnn(C3CCN(CCF)CC3)c2)c2cc(-c3cccc4cnccc34)oc12,100 to 1000 nM
16,Nc1ncc(-c2cnn(C3CC(=O)C3)c2)c2cc(-c3csc4cnccc34)oc12,100 to 1000 nM
17,Nc1ncc(-c2cnn(C3CCCCC3)c2)c2cc(-c3c[nH]c4cnccc34)oc12,100 to 1000 nM
18,Nc1ncc(-c2cnn(C3CCN(C(=O)C4CCC4)CC3)c2)c2cc(-c3cccc4cnccc34)oc12,100 to 1000 nM
19,Nc1ncc(-c2cnn([C@H]3CC[C@H](O)CC3)c2)c2cc(-c3cccc4nnsc34)oc12,≤ 100 nM
20,Cn1cc(-c2cnc(N)c3oc(-c4cccc5cnccc45)cc23)cn1,100 to 1000 nM
21,CC(=O)N1CCC(n2cc(-c3cnc(N)c4oc(-c5c[nH]c6cc(C#N)ccc56)cc34)cn2)CC1,100 to 1000 nM
22,Nc1ncc(-c2cnn(C3CCNCC3)c2)c2cc(-c3csc4cnccc34)oc12,100 to 1000 nM
23,CNc1ncc(-c2cnn(C3CCN(C(C)=O)CC3)c2)c2cc(-c3c[nH]c4cnccc34)oc12,100 to 1000 nM
24,CS(=O)(=O)CCN1CCC(n2cc(-c3cnc(N)c4oc(-c5cccc6cnccc56)cc34)cn2)CC1,100 to 1000 nM
25,CC(=O)N1CCC(n2cc(-c3cnc(N)c4oc(-c5cncc6cnsc56)cc34)cn2)CC1,100 to 1000 nM

# Further lines, results first:
row,IC50,Structure (SMILES)
1,≤ 100 nM,CC(=O)N1CCC(n2cc(-c3cnc(N)c4oc(-c5ccc6c(c5)CCO6)cc34)cn2)CC1
2,100 to 1000 nM,CC(=O)N1CCC(n2cc(-c3cnc(N)c4oc(-c5cccc6[nH]ncc56)cc34)cn2)CC1
3,100 to 1000 nM,CSc1ccccc1-c1cc2c(-c3cnn(C4CCN(C(C)=O)CC4)c3)cnc(N)c2o1
4,> 10000 nM,CC(=O)N1CCC(n2cc(-c3cnc(N)c4oc(-c5ccc6[nH]nc(C#N)c6c5)cc34)cn2)CC1
5,> 10000 nM,CC(=O)N1CCC(n2cc(-c3cnc(N)c4oc(-c5ccc6c(c5)CNC6=O)cc34)cn2)CC1
6,100 to 1000 nM,CC(=O)N1CCC(n2cc(-c3cnc(N)c4oc(-c5cccc([N+](=O)[O-])c5C)cc34)cn2)CC1
7,100 to 1000 nM,CC(=O)N1CCC(n2cc(-c3cnc(N)c4oc(-c5cccc6c5OC(F)(F)O6)cc34)cn2)CC1
8,> 10000 nM,CC(=O)N1CCC(n2cc(-c3cnc(N)c4oc(-c5ccc6c(c5)C(=O)NC6)cc34)cn2)CC1
9,100 to 1000 nM,CC(=O)N1CCC(n2cc(-c3cnc(N)c4oc(-c5cccc6cnccc56)cc34)cn2)CC1
10,100 to 1000 nM,CC(=O)N1CCC(n2cc(-c3cnc(N)c4oc(-c5cccc6[nH]ccc56)cc34)cn2)CC1
11,100 to 1000 nM,CC(=O)N1CCC(n2cc(-c3cnc(N)c4oc(-c5ccc(O)cc5)cc34)cn2)CC1
12,100 to 1000 nM,CC(=O)N1CCC(n2cc(-c3cnc(N)c4oc(-c5ccc6sccc6c5)cc34)cn2)CC1
13,100 to 1000 nM,CC(=O)N1CCC(n2cc(-c3cnc(N)c4oc(-c5c[nH]c6cc(F)ccc56)cc34)cn2)CC1
14,> 10000 nM,CC(=O)N1CCC(n2cc(-c3cnc(N)c4oc(-c5cn[nH]c5)cc34)cn2)CC1
15,100 to 1000 nM,CC(=O)N1CCC(n2cc(-c3cnc(N)c4oc(-c5ccccc5CC#N)cc34)cn2)CC1
16,100 to 1000 nM,CC(=O)N1CCC(n2cc(-c3cnc(N)c4oc(-c5ccc6[nH]ccc6c5)cc34)cn2)CC1

row,IC50,Structure (SMILES)
1,100 to 1000 nM,CC(=O)N1CCC(n2cc(-c3cnc(N)c4oc(-c5cccc(O)c5)cc34)cn2)CC1
2,100 to 1000 nM,CC(=O)N1CCC(n2cc(-c3cnc(N)c4oc(-c5ccc6scnc6c5)cc34)cn2)CC1
3,100 to 1000 nM,CC(=O)N1CCC(n2cc(-c3cnc(N)c4oc(-c5cccc(OCC#N)c5)cc34)cn2)CC1
4,100 to 1000 nM,CC(=O)N1CCC(n2cc(-c3cnc(N)c4oc(-c5ccc6occc6c5)cc34)cn2)CC1
5,100 to 1000 nM,CC(=O)N1CCC(n2cc(-c3cnc(N)c4oc(-c5ccc(O)cc5C)cc34)cn2)CC1
6,> 10000 nM,CC(=O)N1CCC(n2cc(-c3cnc(N)c4oc(-c5ccc6[nH]nnc6c5)cc34)cn2)CC1
7,≤ 100 nM,CC(=O)N1CCC(n2cc(-c3cnc(N)c4oc(-c5cccc6cnsc56)cc34)cn2)CC1
8,100 to 1000 nM,CC(=O)N1CCC(n2cc(-c3cnc(N)c4oc(-c5cccc([N+](=O)[O-])c5)cc34)cn2)CC1
9,100 to 1000 nM,CCSc1ccccc1-c1cc2c(-c3cnn(C4CCN(C(C)=O)CC4)c3)cnc(N)c2o1
10,> 10000 nM,CC(=O)N1CCC(n2cc(-c3cnc(N)c4oc(-c5ccc(S(C)(=O)=O)cc5)cc34)cn2)CC1
11,100 to 1000 nM,CC(=O)N1CCC(n2cc(-c3cnc(N)c4oc(-c5cccc(C#N)c5)cc34)cn2)CC1
12,100 to 1000 nM,CC(=O)N1CCC(n2cc(-c3cnc(N)c4oc(-c5cccc6ccnn56)cc34)cn2)CC1
13,100 to 1000 nM,CC(=O)N1CCC(n2cc(-c3cnc(N)c4oc(-c5cccn6ccnc56)cc34)cn2)CC1
14,> 10000 nM,CC(=O)N1CCC(n2cc(-c3cnc(N)c4oc(-c5ccc6ncn(C)c6c5)cc34)cn2)CC1
15,≤ 100 nM,CC(=O)N1CCC(n2cc(-c3cnc(N)c4oc(-c5cccc6nnsc56)cc34)cn2)CC1
16,100 to 1000 nM,CC(=O)N1CCC(n2cc(-c3cnc(N)c4oc(-c5csc6ccccc56)cc34)cn2)CC1
